Experimental data as given in ChEMBL document CHEMBL4152250, “Antibacterial and anti-TB tat-peptidomimetics with improved efficacy and half-life” (Eur J Med Chem, 2018).
Values after ≈ are worked out from the molar mass of the structure shown. Numbered stars: 1 amine (or outer) side, 2 acyl side, 3 side chain; on linkers, the order of the positions; unused ones are H or OH. Square brackets hold non-standard residues; d marks the D form. Peptide text beside a SMILES is read from it. Pro(N-(CH2)3Gua,cis-4-NH-) = N=C(N)NCCCN1C[C@@H](N[*:1])C[C@H]1C(=O)[*:2]; Pro(cis-4-guanidino) = NC(N)=N[C@@H]1CN[C@H](C(=O)O)C1; X1 = NCCCN1C[C@@H](N[*:1])C[C@H]1C(=O)[*:2]; Ethylenediamine = C(CN[*:2])N[*:1]; βAla = NCCC(=O)O

Experiments:
[1] = test system: Mycobacterium tuberculosis; assay: Antitubercular activity against multidrug-resistant dormant stage of Mycobacterium tuberculosis H37Ra after 12 days by XRMA; type: functional, organism-based; conditions: 288 h
[2] = test system: Mycobacterium tuberculosis; assay: Antitubercular activity against multidrug-resistant active stage of Mycobacterium tuberculosis H37Ra after 8 days by XRMA; type: functional, organism-based; conditions: 192 h

Row | Structure (SMILES) | IC50 [1] [nM] | MIC [1] [µM] | IC50 [2] [nM] | MIC [2] [µM]
1 | CC(=O)N[C@@H](Cc1ccccc1)C(=O)NCC(=O)N[C@@H](CCCNC(=N)N)C(=O)N[C@@H](CCCCN)C(=O)N[C@@H](CCCCN)C(=O)N[C@H]1C[C@@H](C(=O)N[C@@H](CCCNC(=N)N)C(=O)N[C@@H](CCC(N)=O)C(=O)N[C@@H](CCCNC(=N)N)C(=O)N[C@@H](CCCNC(=N)N)C(=O)N[C@@H](CCCNC(=N)N)C(=O)NCCC(N)=O)N(CCCNC(=N)N)C1 (Ac-FGRKK[Pro(N-(CH2)3Gua,cis-4-NH-)]RQRRR[βAla]-NH2) | 1100 | 10.6 (≈ 18.1 µg/mL) | 2000 | 13 (≈ 22.2 µg/mL)
2 | CC(=O)N[C@@H](Cc1ccccc1)C(=O)NCC(=O)N[C@H]1C[C@@H](C(=O)N[C@@H](CCCCN)C(=O)N[C@@H](CCCCN)C(=O)N[C@@H](CCCNC(=N)N)C(=O)N[C@H]2C[C@@H](C(=O)N[C@@H](CCC(N)=O)C(=O)N[C@@H](CCCNC(=N)N)C(=O)N[C@@H](CCCNC(=N)N)C(=O)N[C@H]3C[C@@H](C(=O)NCCC(N)=O)N(CCCN)C3)N(CCCN)C2)N(CCCN)C1 (Ac-FG[X1]KKR[X1]QRR[X1][βAla]-NH2) | 1460 | 14 (≈ 23.7 µg/mL) | 2600 | 23.5 (≈ 39.8 µg/mL)
3 | CC(=O)N[C@@H](Cc1ccccc1)C(=O)NCC(=O)N[C@@H](CCCNC(=N)N)C(=O)N[C@@H](CCCCN)C(=O)N[C@@H](CCCCN)C(=O)N1C[C@@H](NC(=N)N)C[C@H]1C(=O)N[C@@H](CCCNC(=N)N)C(=O)N[C@@H](CCC(N)=O)C(=O)N[C@@H](CCCNC(=N)N)C(=O)N[C@@H](CCCNC(=N)N)C(=O)N[C@@H](CCCNC(=N)N)C(=O)NCCC(N)=O (Ac-FGRKK[Pro(cis-4-guanidino)]RQRRR[βAla]-NH2) | 3270 | 14.5 (≈ 24 µg/mL) | 2680 | 15.1 (≈ 25 µg/mL)
4 | CC(=O)N[C@@H](Cc1ccccc1)C(=O)NCC(=O)N[C@H]1C[C@@H](C(=O)N[C@@H](CCCCN)C(=O)N[C@@H](CCCCN)C(=O)N[C@@H](CCCNC(=N)N)C(=O)N[C@H]2C[C@@H](C(=O)N[C@@H](CCC(N)=O)C(=O)N[C@@H](CCCNC(=N)N)C(=O)N[C@@H](CCCNC(=N)N)C(=O)N[C@H]3C[C@@H](C(=O)NCCC(N)=O)N(CCCNC(=N)N)C3)N(CCCNC(=N)N)C2)N(CCCNC(=N)N)C1 (Ac-FG[Pro(N-(CH2)3Gua,cis-4-NH-)]KKR[Pro(N-(CH2)3Gua,cis-4-NH-)]QRR[Pro(N-(CH2)3Gua,cis-4-NH-)][βAla]-NH2) | 670 | 10.4 (≈ 18.9 µg/mL) | 6400 | 25.3 (≈ 46.1 µg/mL)
5 | NC(=O)c1cnccn1 [PYRAZINAMIDE] | – | > 100 | – | > 100
6 | CC(=O)N[C@@H](Cc1ccccc1)C(=O)NCC(=O)N[C@@H](CCCNC(=N)N)C(=O)N[C@@H](CCCCN)C(=O)N[C@@H](CCCCN)C(=O)N[C@@H](CCCNC(=N)N)C(=O)N[C@@H](CCCNC(=N)N)C(=O)N[C@@H](CCC(N)=O)C(=O)N[C@@H](CCCNC(=N)N)C(=O)N[C@@H](CCCNC(=N)N)C(=O)N[C@H]1C[C@@H](C(=O)NCCC(N)=O)N(CCCNC(=N)N)C1 (Ac-FGRKKRRQRR[Pro(N-(CH2)3Gua,cis-4-NH-)][βAla]-NH2) | 1280 | 12 (≈ 20.5 µg/mL) | 1850 | 22.1 (≈ 37.8 µg/mL)
7 | CC(=O)N[C@@H](Cc1ccccc1)C(=O)NCC(=O)N[C@H]1C[C@@H](C(=O)N[C@@H](CCCCN)C(=O)N[C@@H](CCCCN)C(=O)N[C@@H](CCCNC(=N)N)C(=O)N[C@H]2C[C@@H](C(=O)N[C@@H](CCC(N)=O)C(=O)N[C@H]3C[C@@H](C(=O)N[C@@H](CCCNC(=N)N)C(=O)N[C@H]4C[C@@H](C(=O)NCCN)N(CCCN)C4)N(CCCN)C3)N(CCCN)C2)N(CCCN)C1 (Ac-FG[X1]KKR[X1]Q[X1]R[X1]-Ethylenediamine) | 1080 | 6.6 (≈ 11.1 µg/mL) | 2800 | 12 (≈ 20.2 µg/mL)
8 | CC(=O)N[C@@H](Cc1ccccc1)C(=O)NCC(=O)N1C[C@@H](NC(=N)N)C[C@H]1C(=O)N[C@@H](CCCCN)C(=O)N[C@@H](CCCCN)C(=O)N[C@@H](CCCNC(=N)N)C(=O)N1C[C@@H](NC(=N)N)C[C@H]1C(=O)N[C@@H](CCC(N)=O)C(=O)N1C[C@@H](NC(=N)N)C[C@H]1C(=O)N[C@@H](CCCNC(=N)N)C(=O)N1C[C@@H](NC(=N)N)C[C@H]1C(=O)NCCC(N)=O (Ac-FG[Pro(cis-4-guanidino)]KKR[Pro(cis-4-guanidino)]Q[Pro(cis-4-guanidino)]R[Pro(cis-4-guanidino)][βAla]-NH2) | 1900 | 21.5 (≈ 35.4 µg/mL) | 10800 | 26.4 (≈ 43.5 µg/mL)
9 | CC(=O)N[C@@H](Cc1ccccc1)C(=O)NCC(=O)N1C[C@@H](NC(=N)N)C[C@H]1C(=O)N[C@@H](CCCCN)C(=O)N[C@@H](CCCCN)C(=O)N[C@@H](CCCNC(=N)N)C(=O)N1C[C@@H](NC(=N)N)C[C@H]1C(=O)N[C@@H](CCC(N)=O)C(=O)N[C@@H](CCCNC(=N)N)C(=O)N[C@@H](CCCNC(=N)N)C(=O)N1C[C@@H](NC(=N)N)C[C@H]1C(=O)NCCC(N)=O (Ac-FG[Pro(cis-4-guanidino)]KKR[Pro(cis-4-guanidino)]QRR[Pro(cis-4-guanidino)][βAla]-NH2) | 500 | 6 (≈ 9.9 µg/mL) | 1320 | 15 (≈ 24.7 µg/mL)
10 | CC(=O)N[C@@H](Cc1ccccc1)C(=O)NCC(=O)N[C@H]1C[C@@H](C(=O)N[C@@H](CCCCN)C(=O)N[C@@H](CCCCN)C(=O)N[C@@H](CCCNC(=N)N)C(=O)N[C@H]2C[C@@H](C(=O)N[C@@H](CCC(N)=O)C(=O)N[C@H]3C[C@@H](C(=O)N[C@@H](CCCNC(=N)N)C(=O)N[C@H]4C[C@@H](C(=O)NCCC(N)=O)N(CCCNC(=N)N)C4)N(CCCNC(=N)N)C3)N(CCCNC(=N)N)C2)N(CCCNC(=N)N)C1 | 2360 | 11.7 (≈ 22 µg/mL) | 3100 | 24.6 (≈ 46.2 µg/mL)
11 | CC(=O)N[C@@H](Cc1ccccc1)C(=O)NCC(=O)N[C@@H](CCCNC(=N)N)C(=O)N[C@@H](CCCCN)C(=O)N[C@@H](CCCCN)C(=O)N[C@@H](CCCNC(=N)N)C(=O)N[C@@H](CCCNC(=N)N)C(=O)N[C@@H](CCC(N)=O)C(=O)N[C@@H](CCCNC(=N)N)C(=O)N[C@@H](CCCNC(=N)N)C(=O)N1C[C@@H](NC(=N)N)C[C@H]1C(=O)NCCC(N)=O (Ac-FGRKKRRQRR[Pro(cis-4-guanidino)][βAla]-NH2) | 3100 | 12.9 (≈ 21.3 µg/mL) | 3100 | 22.5 (≈ 37.2 µg/mL)
12 | CC(=O)N[C@@H](Cc1ccccc1)C(=O)NCC(=O)N[C@@H](CCCNC(=N)N)C(=O)N[C@@H](CCCCN)C(=O)N[C@@H](CCCCN)C(=O)N[C@@H](CCCNC(=N)N)C(=O)N[C@@H](CCCNC(=N)N)C(=O)N[C@@H](CCC(N)=O)C(=O)N[C@@H](CCCNC(=N)N)C(=O)N[C@@H](CCCNC(=N)N)C(=O)N[C@@H](CCCNC(=N)N)C(N)=O | 19200 | – | > 60000 | –
13 | CO[C@H]1/C=C/O[C@@]2(C)Oc3c(C)c(O)c4c(O)c(c(/C=N/N5CCN(C)CC5)c(O)c4c3C2=O)NC(=O)/C(C)=C\C=C\[C@H](C)[C@H](O)[C@@H](C)[C@@H](O)[C@@H](C)[C@H](OC(C)=O)[C@@H]1C [RIFAMPIN] | – | > 12.1 | – | > 12.1
